EPA's ToxValDB 9.5 (doi:10.2903/j.efsa.2010.1558)
≈ marks a conversion by molar mass, not a printed value.

Tests used:
[1] = test system: Rattus norvegicus; conditions: for NOAEL: reproduction developmental
[2] = test system: Pimephales promelas; conditions: chronic/long-term; duration: 33 days; growth
[3] = test system: Canidae; conditions: chronic; duration: 1 years; oral; Dog Other; body weight
[4] = test system: Typhlodromus pyri; conditions: acute; duration: 14 days; reproduction
[5] = test system: Anas platyrhynchos; conditions: reproductive
[6] = test system: Daphnia magna; conditions: chronic/long-term; duration: 21 days; mobility
[7] = test system: Lepomis macrochirus; conditions: acute; duration: 96 hours; mortality
[8] = test system: Apis mellifera; conditions: acute, duration: 48 hours, mortality
[9] = test system: Colinus virginianus; conditions: oral
[10] = test system: Tagia sp.; conditions: acute; duration: 14 days; mortality

N#CC(CCc1ccc(Cl)cc1)(Cn1cncn1)c1ccccc1 (centres undefined)
LD50 ([1]; acute, oral, mortality): > 5000 mg/kg-day | NOAEL ([1]; body weight): 30 mg/kg-day | NOAEL ([1]; reproduction): 5 mg/kg-day | NOEC [2]: 0.023 mg/L | NOAEL [3]: 0.62 mg/kg-day | LEL [4]: 63 g/ha | NOEC [5]: 21 mg/kg-day | NOEC [6]: 0.078 mg/L | LC50 [7]: 0.68 µg/mL (≈ 2.02 µM) | LD50 ([8]; dermal): > 5.5 µg/piece | LD50 ([8]; oral, unspecified): > 5.2 µg/piece | LD50 ([9]; acute, mortality): > 2150 mg/kg-day | NOEL ([9]; short-term, diet, food consumption): 111 mg/kg-day | LC50 [10]: > 100 mg/kg
